Experimental findings from patent US20260375165A1, “ENGINEERED HUMAN SERINE DEHYDRATASE ENZYMES AND METHODS FOR TREATING CANCER” (BOARD OF REGENTS, THE UNIVERSITY OF TEXAS SYSTEM, priority 2022, published 2026) are described below.

Holding throughout (format): biochemical
Assay [1] deals with T1, human serine dehydratase (hSDH, EC 4.3.1.17), wild type, SEQ ID NO: 1 (Homo sapiens, UniProt P20132).
T1 construct: hexahistidine (N); made in house; host or cells: E. coli BL21 (DE3), pET28a
T1 sequence (P20132 1-328): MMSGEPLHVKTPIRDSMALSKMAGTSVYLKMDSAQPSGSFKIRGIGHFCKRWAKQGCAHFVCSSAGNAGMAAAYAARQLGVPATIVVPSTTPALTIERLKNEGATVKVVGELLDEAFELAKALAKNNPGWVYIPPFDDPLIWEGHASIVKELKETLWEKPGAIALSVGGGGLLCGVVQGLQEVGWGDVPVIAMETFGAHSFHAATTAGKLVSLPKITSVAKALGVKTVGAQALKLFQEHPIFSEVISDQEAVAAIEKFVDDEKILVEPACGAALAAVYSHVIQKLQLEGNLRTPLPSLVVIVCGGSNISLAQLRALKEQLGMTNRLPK
As to the kind of experiment: MBTH assay, kcat/Km of purified wild-type hSDH. As to conditions: role: substrate. The protocol:
(§1) Human SDH variants were expressed and purified for subsequent biophysical characterization. In brief, hSDH variants in the pET28a plasmid was transformed into BL21 (DE3) for expression. The cells were grown overnight at 37 °C in 5 mL of TB media with 50 μg/mL of kanamycin. The subsequent morning, cultures were inoculated, at a 1:1000 dilution, into 0.5 L of fresh TB media containing 50 μg/mL of kanamycin. Upon reaching an A600 of 0.6 to 0.8, the culture was moved to 25 °C and isopropyl β-D-1-thiogalactopyranoside (IPTG) was added to a final concentration of 1 mM to induce T7 RNA polymerase expression, and subsequently hSDH variant protein expression. After overnight incubation, cells were harvested via centrifugation at 5,500 rpm for 20 minutes. The cell pellet, after removing the supernatant, was resuspended using 25 mL of pET lysis buffer (10 mM NaH2PO4, 30 mM imidazole, 300 mM NaCl, pH 8.0). The cell suspension was then lysed by sonication and cleared by centrifugation at 14,000 rpm for 40 minutes. The supernatant from this centrifugation step was then filtered using a 0.22 μm membrane. The clarified supernatant was then applied to 1 mL of nickel-nitrotriacetic acid (Ni-NTA) resin that had been pre-equilibrated with 20 mL of pET lysis buffer. The resin was washed with 20 mL (20 column volumes) of pET lysis buffer. Afterward, the resin was incubated with 3 mL of pET elution buffer (10 mM NaH2POd4, 250 mM imidazole, 300 mM NaCl, pH 8.0), equilibrated for 5 minutes, and then eluted. The elution step was then repeated with 2 ml of extra elution buffer to increase recovery. […] Purity of the proteins were analyzed via sodium dodecyl sulfate-polyacrylamide gel electrophoresis (SDS-PAGE) on a 4% to 20% pre-cast Tris-Glycine gel run under reducing conditions (2.5% β-Mercaptoethanol (BME). Protein concentration was determined via A280 under denaturing conditions using a calculated extinction coefficient (8280=33960 M^−1 cm^−1) from Geneious software (v. 8.0.5). […]

Assay [2] deals with T2, human serine dehydratase (hSDH) Variant 3 (S26N, R51H, S63P, M70I, L94P, G129D, A204S, K221R, A222S, L112S), SEQ ID NO: 4 (Homo sapiens, UniProt P20132, A204S/A222S/G129D/K221R/L112S/L94P/M70I/R51H/S26N/S63P).
T2 sequence (P20132 1-328 S26N/R51H/S63P/M70I/L94P/L112S/G129D/A204S/K221R/A222S): T1 sequence (P20132 1-328) with S26N, R51H, S63P, M70I, L94P, L112S, G129D, A204S, K221R, A222S
Kind of assay: MBTH assay, kcat/Km of purified hSDH Variant 3. As to conditions: role: substrate; threonine 1-100 mM, 1-2 μM enzyme, 37 °C, 20 seconds. How it is done: as §1, with “minutes.” for “minutes. The supernatant from this centrifugation step was then filtered using a 0.22 μm membrane. The clarified supernatant was then applied to 1 mL of nickel-nitrotriacetic acid (Ni-NTA) resin that had been pre-equilibrated with 20 mL of pET lysis buffer. The resin was washed with 20 mL (20 column volumes) of pET lysis buffer. Afterward, the resin was incubated with 3 mL of pET elution buffer (10 mM NaH2POd4, 250 mM imidazole, 300 mM NaCl, pH 8.0), equilibrated for 5 minutes, and then eluted. The elution step was then repeated with 2 ml of extra elution buffer to increase recovery.”

In assay [3] the target is T3, human serine dehydratase (hSDH) Variant 1 (K221F, A222S), SEQ ID NO: 2 (Homo sapiens, UniProt P20132, A222S/K221F).
T3 construct: hexahistidine (N); made in house; host or cells: E. coli BL21 (DE3), pET28a
T3 sequence (P20132 1-328 K221F/A222S): T1 sequence (P20132 1-328) with K221F, A222S
As to the kind of experiment: MBTH assay, kcat/Km of purified hSDH Variant 1. As to conditions: role: substrate; threonine 1-100 mM, 1-2 μM enzyme, 37 °C, 20 seconds. The protocol: as §1, with “minutes.” for “minutes. The supernatant from this centrifugation step was then filtered using a 0.22 μm membrane. The clarified supernatant was then applied to 1 mL of nickel-nitrotriacetic acid (Ni-NTA) resin that had been pre-equilibrated with 20 mL of pET lysis buffer. The resin was washed with 20 mL (20 column volumes) of pET lysis buffer. Afterward, the resin was incubated with 3 mL of pET elution buffer (10 mM NaH2POd4, 250 mM imidazole, 300 mM NaCl, pH 8.0), equilibrated for 5 minutes, and then eluted. The elution step was then repeated with 2 ml of extra elution buffer to increase recovery.”

For assay [4], the target named is T4, human serine dehydratase (hSDH) Variant 5 (I13T, S26N, R51H, I96T, D114E, G129D, K221R, A222G, W157R, D261L, L112S), SEQ ID NO: 6 (Homo sapiens, UniProt P20132, A222G/D114E/D261L/G129D/I13T/I96T/K221R/L112S/R51H/S26N/W157R).
T4 sequence (P20132 1-328 I13T/S26N/R51H/I96T/L112S/D114E/G129D/W157R/K221R/A222G/D261L): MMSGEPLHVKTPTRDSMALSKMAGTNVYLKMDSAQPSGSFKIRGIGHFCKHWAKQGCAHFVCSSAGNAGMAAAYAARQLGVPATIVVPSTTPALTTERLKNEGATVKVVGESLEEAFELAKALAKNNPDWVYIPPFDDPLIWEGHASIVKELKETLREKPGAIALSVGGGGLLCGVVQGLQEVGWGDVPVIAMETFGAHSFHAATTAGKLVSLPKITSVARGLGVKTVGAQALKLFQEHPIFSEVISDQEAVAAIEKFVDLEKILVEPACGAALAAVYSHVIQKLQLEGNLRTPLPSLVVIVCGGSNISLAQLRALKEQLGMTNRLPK
As to the kind of experiment: MBTH assay, kcat/Km of purified hSDH Variant 5. As to conditions: role: substrate; threonine 1-100 mM, 1-2 μM enzyme, 37 °C, 20 seconds. The protocol: as §1, with “minutes.” for “minutes. The supernatant from this centrifugation step was then filtered using a 0.22 μm membrane. The clarified supernatant was then applied to 1 mL of nickel-nitrotriacetic acid (Ni-NTA) resin that had been pre-equilibrated with 20 mL of pET lysis buffer. The resin was washed with 20 mL (20 column volumes) of pET lysis buffer. Afterward, the resin was incubated with 3 mL of pET elution buffer (10 mM NaH2POd4, 250 mM imidazole, 300 mM NaCl, pH 8.0), equilibrated for 5 minutes, and then eluted. The elution step was then repeated with 2 ml of extra elution buffer to increase recovery.”

Assay [5] has as its target T5, human serine dehydratase (hSDH) Variant 4 (I13T, S26N, R51H, I96T, D114E, G129D, K221R, A222S, W157R, D261L, L112S), SEQ ID NO: 5 (Homo sapiens, UniProt P20132, A222S/D114E/D261L/G129D/I13T/I96T/K221R/L112S/R51H/S26N/W157R).
T5 sequence (P20132 1-328 I13T/S26N/R51H/I96T/L112S/D114E/G129D/W157R/K221R/A222S/D261L): T4 sequence (P20132 1-328 I13T/S26N/R51H/I96T/L112S/D114E/G129D/W157R/K221R/A222G/D261L) with G222S
As to the kind of experiment: MBTH assay, kcat/Km of purified hSDH Variant 4. The note with it: role: substrate; threonine 1-100 mM, 1-2 μM enzyme, 37 °C, 20 seconds. The protocol:
as §1, with “minutes.” for “minutes. The supernatant from this centrifugation step was then filtered using a 0.22 μm membrane. The clarified supernatant was then applied to 1 mL of nickel-nitrotriacetic acid (Ni-NTA) resin that had been pre-equilibrated with 20 mL of pET lysis buffer. The resin was washed with 20 mL (20 column volumes) of pET lysis buffer. Afterward, the resin was incubated with 3 mL of pET elution buffer (10 mM NaH2POd4, 250 mM imidazole, 300 mM NaCl, pH 8.0), equilibrated for 5 minutes, and then eluted. The elution step was then repeated with 2 ml of extra elution buffer to increase recovery.”

For assay [6], the target named is T6, human serine dehydratase (hSDH) Variant 2 (S26N, R51H, S63P, M70I, L94P, G129D, A204S, K221R, A222S), SEQ ID NO: 3 (Homo sapiens, UniProt P20132, A204S/A222S/G129D/K221R/L94P/M70I/R51H/S26N/S63P).
T6 sequence (P20132 1-328 S26N/R51H/S63P/M70I/L94P/G129D/A204S/K221R/A222S): T1 sequence (P20132 1-328) with S26N, R51H, S63P, M70I, L94P, G129D, A204S, K221R, A222S
Kind of assay: MBTH assay, kcat/Km of purified hSDH Variant 2. The note with it: role: substrate; threonine 1-100 mM, 1-2 μM enzyme, 37 °C, 20 seconds. The protocol:
as §1, with “minutes.” for “minutes. The supernatant from this centrifugation step was then filtered using a 0.22 μm membrane. The clarified supernatant was then applied to 1 mL of nickel-nitrotriacetic acid (Ni-NTA) resin that had been pre-equilibrated with 20 mL of pET lysis buffer. The resin was washed with 20 mL (20 column volumes) of pET lysis buffer. Afterward, the resin was incubated with 3 mL of pET elution buffer (10 mM NaH2POd4, 250 mM imidazole, 300 mM NaCl, pH 8.0), equilibrated for 5 minutes, and then eluted. The elution step was then repeated with 2 ml of extra elution buffer to increase recovery.”

The structures appear in SMILES notation. Where a chain is given by its changes, count along the chain named.

In the case of `N[C@@H](CO)C(=O)O` [Serine, L-serine], the “kcat/KM (L-serine to pyruvate)” value in assay [1] (irreversible deamination of L-serine to pyruvate) was ~ 0.6 s^−1 mM^−1.
As for `C[C@@H](O)[C@H](N)C(=O)O` [Threonine, L-threonine], the “Kcat /Km (Threonine)” value in assay [2] was 2800 ± 200 M⁻¹ s⁻¹; in assay [1] (threonine 1-100 mM, 1-2 μM enzyme, 37 °C, 20 seconds), 1100 ± 50 M⁻¹ s⁻¹; in assay [3] it was 3800 ± 300 M⁻¹ s⁻¹; in assay [4], 1700 ± 100 M⁻¹ s⁻¹; in assay [5] it was 6800 ± 700 M⁻¹ s⁻¹; in assay [6], 2000 ± 50 M⁻¹ s⁻¹. In addition, the “kcat/KM (L-threonine to α-ketobutyrate)” value in assay [1] (irreversible deamination of L-threonine to α-ketobutyrate) was ~ 1.1 s^−1 mM^−1.
